Molecules are shown by their SMILES. Where only a bound is given, the exact number is not on record here.

One assay addresses T1, IL-17A/A (Homo sapiens, UniProt Q16552).
T1 construct: purchased Genscript Z03228
T1 sequence (Q16552 24-155): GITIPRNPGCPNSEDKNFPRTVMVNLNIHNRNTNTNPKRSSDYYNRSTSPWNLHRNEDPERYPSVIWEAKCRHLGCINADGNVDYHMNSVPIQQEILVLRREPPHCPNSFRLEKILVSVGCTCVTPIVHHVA
Description: IL-17A/A HEK-Blue Cell Assay. Type of assay: cell-based. As to conditions: HEK-Blue IL-17A reporter cell line, SEAP readout at A630, 20 hours incubation with IL-17A/A; top concentration 10 uM, 1 uM or 0.3 uM. The procedure: The HEK-Blue IL-17A reporter cell line (Fisher #NC1408637) was used for cell-based IL-17A/A inhibition assays. Cells were grown and prepared for assays according to the manufacturer's instructions. This cell line consists of HEK 293 cells that were designed to expressed IL-17RA, IL-17RC, and the ActI adapter molecule, the combination of which, when stimulated by IL-17A/A activates a NFκB promoter and drives expression of a recombinant Secreted Alkaline Phosphatase (SEAP) geneprotein. Media from the cells is then added to a development reagent (Quanti-Blue Substrate, Fisher #NC9711613), and read at A630.
Compounds were titrated in DMSO, with a top final compound concentration of 10 uM, 1 uM, or 0.3 uM, and added to the cells immediately before adding IL-17A/A (Genscript #Z03228). The cells, compound, and IL-17A/A were then incubated for 20 hours before media was removed for SEAP analysis. The resulting inhibition curve was then analyzed using Graphpad Prism 7.0, and IC50 values were determined using a 4-parameter nonlinear fit. DMSO was added to a universal final concentration of 0.1% to optimize background.
Regarding `CCC(=O)N[C@@H](C(=O)N1CCN(C)CC1)[C@@H](C)c1ccc(NC(=O)C(NC(=O)c2ccnn2CC)C(CC)c2ccc(F)cc2)c(F)c1` (single isomer, unassigned) [Compound 553], the “IL-17A/A inhibition (pIC50)” value is “X2a (compounds were evaluated up to 1 uM and did not inhibit activity by >80%, however they showed some activity at 1 uM (less than 80% and more than 20%))”.
Consider `CCC(=O)N[C@@H](C(=O)N1CCN(C)CC1)[C@@H](C)c1ccc(NC(=O)C(NC(=O)c2ccnn2CC)C(CC)c2ccc(F)cc2)c(F)c1` (single isomer, unassigned) [Compound 556], for which the “IL-17A/A inhibition (pIC50)” value was “X2a (compounds were evaluated up to 1 uM and did not inhibit activity by >80%, however they showed some activity at 1 uM (less than 80% and more than 20%))”.
Still for that read-out and setting: the entry for `CCC(=O)N[C@@H](C(=O)N1CCN(C)CC1)[C@@H](C)c1ccc(NC(=O)C(NC(=O)c2nonc2CC)C(CC)c2ccc(F)cc2)c(F)c1` (single isomer, unassigned) [Compound 559] is “X2b (compounds were evaluated up to 1 uM and inhibited activity at 1 uM by less than 20%)”; for `CCC(=O)N[C@@H](C(=O)N1CCN(C)CC1)[C@@H](C)c1ccc(NC(=O)C(NC(=O)c2ccnn2CC)C(CC)c2ccc(Cl)cc2)c(F)c1` (single isomer, unassigned) [Compound 560] it is “X2b (compounds were evaluated up to 1 uM and inhibited activity at 1 uM by less than 20%)”.
Still for that read-out and setting: the entry for `CCC(=O)N[C@@H](C(=O)N1CCN(C)CC1)[C@@H](C)c1ccc(NC(=O)C(NC(=O)c2ccnn2CC)C(CC)c2ccc(Cl)cc2)c(F)c1` (single isomer, unassigned) [Compound 563] is “X2b (compounds were evaluated up to 1 uM and inhibited activity at 1 uM by less than 20%)”; for `CCC(=O)N[C@@H](C(=O)N1CCN(C)CC1)[C@@H](C)c1ccc(NC(=O)C(NC(=O)c2nonc2CC)C(CC)c2ccc(Cl)cc2)c(F)c1` (single isomer, unassigned) [Compound 564] it is “X2a (compounds were evaluated up to 1 uM and did not inhibit activity by >80%, however they showed some activity at 1 uM (less than 80% and more than 20%))”.
Still for that read-out and setting: to `CCC(=O)N[C@@H](C(=O)N1CCN(C)CC1)[C@@H](C)c1ccc(NC(=O)C(NC(=O)c2ccnn2CC)C2CCc3cc(F)ccc32)c(F)c1` (single isomer, unassigned) [Compound 571] belongs “X2a (compounds were evaluated up to 1 uM and did not inhibit activity by >80%, however they showed some activity at 1 uM (less than 80% and more than 20%))”; to `CCC(=O)N[C@@H](C(=O)N1CCN(C)CC1)[C@@H](C)c1ccc(NC(=O)C(NC(=O)c2nonc2CC)C(C)C2CCC(C)CC2)c(F)c1` (single isomer, unassigned) [Compound 584], “X2b (compounds were evaluated up to 1 uM and inhibited activity at 1 uM by less than 20%)”; to `CCC(=O)N[C@@H](C(=O)N1CCN(C)CC1)[C@@H](C)c1ccc(NC(=O)C(NC(=O)c2ccnn2CC)C(C)C2CCC(C)CC2)c(F)c1` (single isomer, unassigned) [Compound 585], “X2a (compounds were evaluated up to 1 uM and did not inhibit activity by >80%, however they showed some activity at 1 uM (less than 80% and more than 20%))”.
As to `CCC(=O)N[C@@H](C(=O)N1CCN(C)CC1)[C@@H](C)c1ccc(NC(=O)C(NC(=O)c2nonc2CC)C(C)C2CCC(F)(F)CC2)c(F)c1` (single isomer, unassigned) [Compound 588], the “IL-17A/A inhibition (pIC50)” value was “X3b (compounds were evaluated up to 0.3 uM and inhibited activity at 0.3 uM by less than 20%)”.
As to `CCC(=O)N[C@@H](C(=O)N1CCN(C)CC1)[C@@H](C)c1ccc(NC(=O)C(NC(=O)c2ccnn2CC)C(C)C2CCC(F)(F)CC2)c(F)c1` (single isomer, unassigned) [Compound 589], the “IL-17A/A inhibition (pIC50)” value is “X3b (compounds were evaluated up to 0.3 uM and inhibited activity at 0.3 uM by less than 20%)”.
In the case of `CCC(=O)N[C@@H](C(=O)N1CCN(C)CC1)[C@@H](C)c1ccc(NC(=O)C(NC(=O)c2nonc2CC)C(C)C2CCC(F)(F)CC2)c(F)c1` (single isomer, unassigned) [Compound 590], the “IL-17A/A inhibition (pIC50)” value is “X3b (compounds were evaluated up to 0.3 uM and inhibited activity at 0.3 uM by less than 20%)”.
In the case of `CCC(=O)N[C@@H](C(=O)N1CCN(C)CC1)[C@@H](C)c1ccc(NC(=O)C(NC(=O)c2ccnn2CC)C(C)C2CCC(F)(F)CC2)c(F)c1` (single isomer, unassigned) [Compound 591], the “IL-17A/A inhibition (pIC50)” value was “X3b (compounds were evaluated up to 0.3 uM and inhibited activity at 0.3 uM by less than 20%)”.

Staying with this assay, now noted: HEK-Blue IL-17A reporter cell line, SEAP readout at A630, 20 hours incubation with IL-17A/A; top concentration 10 uM, 1 uM or 0.3 uM; read-out: IL-17A/A inhibition (pIC50) (converted).
With `CCC(=O)N[C@@H](C(=O)N1CCN(C)CC1)[C@@H](C)c1ccc(NC(=O)C(NC(=O)c2ccnn2CC)C(C)c2ccc(C)cc2)c(F)c1` (single isomer, unassigned) [Compound 294], the IC50 is 10 to 100 nM.
Same read-out and setting: the figure for `CCC(=O)NC(C(=O)N1CCN(C(C)C)CC1)[C@@H](C)c1ccc(NC(=O)[C@@H](NC(=O)c2ccnn2CC)[C@H]2CC[C@H](C)CC2)c(F)c1` (single isomer, unassigned) [Compound 368] is 10 to 100 nM; for `CCC(=O)N[C@@H](C(=O)N1CCN(C)CC1)[C@@H](C)c1ccc(NC(=O)C(NC(=O)c2ccnn2CC)C(CC)c2ccc(F)cc2)c(F)c1` (single isomer, unassigned) [Compound 554] it is 100 to 10000 nM.
Take `CCC(=O)N[C@@H](C(=O)N1CCN(C)CC1)[C@@H](C)c1ccc(NC(=O)C(NC(=O)c2ccnn2CC)C(CC)c2ccc(F)cc2)c(F)c1` (single isomer, unassigned) [Compound 555]: the IC50 is below 10 nM.
For `CCC(=O)N[C@@H](C(=O)N1CCN(C)CC1)[C@@H](C)c1ccc(NC(=O)C(NC(=O)c2nonc2CC)C(CC)c2ccc(F)cc2)c(F)c1` (single isomer, unassigned) [Compound 557], the IC50 is 100 to 10000 nM.
The same measure, in the same setting: the figure for `CCC(=O)N[C@@H](C(=O)N1CCN(C)CC1)[C@@H](C)c1ccc(NC(=O)C(NC(=O)c2nonc2CC)C(CC)c2ccc(F)cc2)c(F)c1` (single isomer, unassigned) [Compound 558] is below 10 nM; for `CCC(=O)N[C@@H](C(=O)N1CCN(C)CC1)[C@@H](C)c1ccc(NC(=O)C(NC(=O)c2ccnn2CC)C(CC)c2ccc(Cl)cc2)c(F)c1` (single isomer, unassigned) [Compound 562] it is 10 to 100 nM.
On the same count and under the same terms, to `CCC(=O)N[C@@H](C(=O)N1CCN(C)CC1)[C@@H](C)c1ccc(NC(=O)C(NC(=O)c2nonc2CC)C(CC)c2ccc(Cl)cc2)c(F)c1` (single isomer, unassigned) [Compound 565] belongs below 10 nM.
The same measure, in the same setting: to `CCC(=O)N[C@@H](C(=O)N1CCN(C)CC1)[C@@H](C)c1ccc(NC(=O)C(NC(=O)c2ccnn2CC)C2CCc3cc(F)ccc32)c(F)c1` (single isomer, unassigned) [Compound 568] belongs below 10 nM.
Regarding `CCC(=O)N[C@@H](C(=O)N1CCN(C)CC1)[C@@H](C)c1ccc(NC(=O)C(NC(=O)c2nonc2CC)C2CCc3cc(F)ccc32)c(F)c1` (single isomer, unassigned) [Compound 569], the IC50 was 100 to 10000 nM.
With `CCC(=O)N[C@@H](C(=O)N1CCN(C)CC1)[C@@H](C)c1ccc(NC(=O)C(NC(=O)c2nonc2CC)C2CCc3cc(F)ccc32)c(F)c1` (single isomer, unassigned) [Compound 570], the IC50 was below 10 nM.
Consider `CCn1nccc1C(=O)N[C@H](C(=O)Nc1ccc([C@H](C)C(NC(=O)C(C)F)C(=O)N2CCN(C)[C@@H](C)C2)cc1F)[C@H]1CC[C@H](C)CC1` (single isomer, unassigned) [Compound 592], for which the IC50 is 10 to 100 nM.
The same measure, in the same setting: the figure for `CCc1nonc1C(=O)N[C@H](C(=O)Nc1ccc([C@H](C)C(NC(=O)C(C)F)C(=O)N2CCN(C)[C@@H](C)C2)cc1F)[C@H]1CC[C@H](C)CC1` (single isomer, unassigned) [Compound 594] is below 10 nM; for `CCc1nonc1C(=O)N[C@H](C(=O)Nc1ccc([C@H](C)C(NC(=O)C(C)F)C(=O)N2CCN(C)[C@@H](C)C2)cc1F)[C@H]1CC[C@H](C)CC1` (single isomer, unassigned) [Compound 595] it is 10 to 100 nM; for `CCn1nccc1C(=O)N[C@H](C(=O)Nc1ccc([C@H](C)C(NC(=O)C(C)F)C(=O)N2CCN(C)[C@H](C)C2)cc1F)[C@H]1CC[C@H](C)CC1` (single isomer, unassigned) [Compound 596] it is 10 to 100 nM.
For `CCc1nonc1C(=O)N[C@H](C(=O)Nc1ccc([C@H](C)C(NC(=O)C(C)F)C(=O)N2CCN(C)[C@H](C)C2)cc1F)[C@H]1CC[C@H](C)CC1` (single isomer, unassigned) [Compound 598], the IC50 is 10 to 100 nM.
Still for that read-out and setting: the figure for `CCc1nonc1C(=O)N[C@H](C(=O)Nc1ccc([C@H](C)C(NC(=O)C(C)F)C(=O)N2CCN(C)[C@H](C)C2)cc1F)[C@H]1CC[C@H](C)CC1` (single isomer, unassigned) [Compound 599] is below 10 nM; for `CCc1nonc1C(=O)N[C@H](C(=O)Nc1ccc([C@H](C)C(NC(=O)C(F)C2CC2)C(=O)N2CCN(C)[C@H](C)C2)cc1F)[C@H]1CC[C@H](C)CC1` (single isomer, unassigned) [Compound 600] it is below 10 nM.

These data come from US12421212B2, “Substituted benzenecarboxamides as IL-17A modulators” (DiCE Alpha, Inc., priority 2019, dated 2025).
